From patent US20050119344A1, “Medium for radical treatment of tumors, inflammatory processes, fungal infections and other affections of the tissues, diagnostic and prophylactic and method of its implementation” (priority 2001, published 2005)

How the values were obtained:
[1] = system: malign formation in the milk gland
Source text: (§1) The treatment is provided by rub in the medium with a tampon impregnated with it, directly in the tumor (by the skin ones), or in the accessible surface of the healthy tissue situated near by it. The rub in takes place repeatedly, with waiting for the absorption of the solution, until the tumor is saturated with formic acid in such a degree, that the blood in its blood-vessels coagulates and so that the tumor will be necrotized. […] By the benign tumor the treatment shall include mechanical irritation of its tissue too, with the purpose to stimulate the blood-circulation in it, by which the blood-vessels will be filled out and their surface will be enlarged on the account of the thickness of their walls. Such a treatment can be utilized, if necessary, by the malignant tumors too.
In the concrete case the treatment is applied on the spouse and respectively parent of the inventors. The women is […], with two side fibrose mastopatia. On 19 Nov. 2001 by an echographic examination has been discovered malign formation in the left breast, sector 12h, with the above mentioned dimensions and deepness, (FIG. 1 and FIG. 2). The diagnosis was confirmed through punctual biopsy. The treatment by the above-mentioned method began on 23 Nov. 2001 in the evening. […] The procedures continued three times daily in the following days.

benign human skin tumors = details: through rub in
Source text: as §1

[2] = system: inflammatory processes, mushroom formations, and other pathological alterations of the tissues
[3] = system: pathologically altered tissue; details: very weak solutions, in the range of 10%
Source text: By broader studies can be composed a table for the painfulness of the reaction by the different groups of tumors and other types of tissue alteration, depending on the solution concentration, the time of influence, for example by rub in and the deepness of the alteration.
The method has been applied for diagnostic of breast cancer.

O=CO [formic acid, formic (methane) acid (HCOOH)]
state of the tumor tissue ([1]; concluded from echography, biopsy and lack of pain by rub in): necrotized | echographic size of the flack ([1]; echography 11 Dec. 2001 (FIG. 5)): the flack is diminished | outcome of treatment of malign formation in the milk gland ([1]; only through rub in, formation 5.7 to 7.4 mm, about 8 mm deep): successfully implemented | second punction biopsy, cancer cells ([1]; person, rub in three times daily from 23 Nov. 2001, biopsy 01 Dec. 2001): have not been observed cancer cells | elimination of benign human skin tumors (benign human skin tumors): repeatedly implemented for the elimination | action in inflammatory processes, mushroom formations and other tissue alterations ([2]; rub in, pulverizing, inhalations or other supply): acts very effectively and rapidly | outcome in tooth grenolom ([2]; three cases): the extraction of the teeth was prevented | reaction when hitting places with pathologically altered tissue [3]: give pain reaction
